Drawing on PubChem BioAssay AID651857 (Broad Institute, 2012), this text covers IC90 and outcome for 56 compounds.

The structures appear in SMILES notation. Several values for one entry are separate records, joined by “and”; a condition that tells them apart may be missing. Equal entries are not always repeated. Activity calls are given as the source filed them. No rule for the calls is given here.

The test system of the first assay is M. tuberculosis starvation survival, CFU enumeration. Description: M tuberculosis starvation survival, cfu enumeration, confirmatory dry powder inhibitor dose response, ic90 (AID 651857).
Conditions: not given
`Fc1ccc(-c2nnc(SCc3cn(Cc4ccccc4)nn3)o2)cc1`: the IC90 (usually the concentration at which the effect reaches the 90% level) is 2 µM.
Take `c1ccc(CSc2nnc(-c3cccs3)o2)cc1`: the IC90 is > 62 µM (inactive).
As to `[O-][n+]1ccccc1CSc1nnc(-c2ccccc2)o1`, the IC90 was > 62 µM (inactive).
Regarding `Fc1ccc(-c2nnc(SCc3cn(-c4ccccc4)nn3)o2)cc1`, the IC90 was 2 µM.
On the same count and under the same terms, for `c1ccc(-c2nnc(SCc3ccccn3)o2)cc1` the value was 4 µM; for `c1ccc(CSc2nnc(C3CCCC3)o2)cc1`, 31 µM.
The same measure, in the same setting: the same measure for `FC(F)(F)Oc1ccc(CSc2nnc(-c3ccccc3)o2)cc1`: > 62 µM (inactive); for `c1ccc(Cn2cc(CSc3nnc(C4CCC4)o3)nn2)cc1`: 8 µM; for `Brc1ccc(-c2nnc(SCc3ccccn3)o2)cc1`: less than 8 µM.
As for `Fc1ccc(Cn2cc(CSc3nnc(-c4ccc(F)cc4)o3)nn2)cc1`, the IC90 was 2 µM.
Take `COc1ccc(CSc2nnc(-c3ccccc3)o2)cc1`: the IC90 was > 62 µM (inactive).
Still for that read-out and setting: for `COc1ccc(CSc2nnc(-c3ccc(Cl)cc3)o2)nc1` the value was less than 8 µM; for `N#Cc1ccccc1CSc1nnc(-c2ccccc2)o1`, > 62 µM (inactive); for `c1ccc(CSc2nnc(-c3ccccc3)o2)cc1`, 8 µM.
Consider `c1ccc(CCc2nnc(-c3ccccc3)o2)cc1`, for which the IC90 was > 62 µM (inactive).
The same measure, in the same setting: for `c1ccc(-c2nnc(SC3CCCCC3)o2)cc1` the value was 31 µM.
For the compound `c1ccc(-c2nnc(SCCN3CCN(c4ccccc4)CC3)o2)cc1`, the IC90 was 16 µM.
As for `c1ccc(CSc2nnc(-c3cccnc3)o2)cc1`, the IC90 was 62 µM.
On to `c1ccc(-n2cc(CSc3nnc(C4CCCC4)o3)nn2)cc1`, for which the IC90 is 4 µM.
Same read-out and setting: the same measure for `Fc1ccc(Cn2cc(CSc3nnc(-c4ccc(Cl)cc4)o3)nn2)cc1`: 2 µM.
`O=S(=O)(Cc1ccccc1)c1nnc(-c2ccccc2)o1`: the IC90 was < 62 µM and 8 µM.
For the compound `O=S(Cc1cn(Cc2ccccc2)nn1)c1nnc(-c2ccc(Cl)cc2)o1` (stereo unspecified), the 90% effect concentration (IC90) is < 31 µM and 8 µM.
For `c1ccc(-c2nnc(SCCC3OCCCO3)o2)cc1`, the IC90 is 10 µM.
For `Fc1cccc(-c2nnc(SCc3ccccc3)o2)c1`, the IC90 was 62 µM.
Same read-out and setting: the same measure for `Cc1ccc(-c2nnc(SCc3ccccc3)o2)cc1`: > 62 µM (inactive).
For the compound `CN(Cc1ccccc1)c1nnc(-c2ccccc2)o1`, the IC90 was > 62 µM (inactive).
Consider `FC1(F)CCN(CCSc2nnc(-c3ccccc3)o2)CC1`, for which the IC90 is > 62 µM (inactive).
As for `Clc1ccc(-c2nnc(SCc3cn(-c4ccccc4)nn3)o2)cc1`, the IC90 was 2 µM.
As to `COc1cccc(-c2nnc(SCc3ccccn3)o2)c1`, the IC90 was less than 8 µM.
On to `Fc1ccc(CSc2nnc(-c3ccccc3)o2)cc1`, for which the IC90 is 62 µM.
`c1ccc(Cn2cc(CSc3nnc(C4CCCC4)o3)nn2)cc1`: the IC90 is 31 µM.
On to `CC(C)c1nnc(SCc2ccccc2)o1`, for which the IC90 is 125 µM.
Same read-out and setting: the same measure for `Clc1ccc(CSc2nnc(-c3ccccc3)o2)cc1`: 8 µM.
Consider `COCCSc1nnc(-c2ccccc2)o1`, for which the IC90 is 4 µM.
Take `FC(F)(F)c1ccccc1CSc1nnc(-c2ccccc2)o1`: the IC90 is > 62 µM (inactive).
Take `Clc1ccc(-c2nnc(SCc3cn(Cc4ccccc4)nn3)o2)cc1`: the IC90 was 2 µM and < 8 µM.
Same read-out and setting: the same measure for `O=S(Cc1cn(Cc2ccc(F)cc2)nn1)c1nnc(-c2ccc(Cl)cc2)o1` (stereo unspecified): 2 µM; for `c1ccc(-c2nnc(SCc3cscn3)o2)cc1`: 62 µM.
`c1ccc(Cn2cc(CSc3nnc(-c4ccccc4)o3)nn2)cc1`: the IC90 was 4 µM.
As to `c1ccc(CSc2nnc(-c3cnco3)o2)cc1`, the IC90 was 16 µM.
Regarding `c1ccc(CSc2nnc(-c3ccccn3)o2)cc1`, the IC90 was 31 µM.
Regarding `c1ccc(-n2cc(CSc3nnc(C4CCC4)o3)nn2)cc1`, the IC90 was 2 µM.
In the case of `Fc1cccc(CSc2nnc(-c3ccccc3)o2)c1`, the IC90 is 31 µM.
For the compound `[N-]=[N+]=NCCOCCNC(=O)CCCOc1ccc(CSc2nnc(-c3ccc(Cl)cc3)o2)nc1`, the IC90 was less than 8 µM.
Take `O=S(Cc1ccccc1)c1nnc(-c2ccccc2)o1` (stereo unspecified): the concentration for an effect of 90% (IC90) is < 8 µM and 2 µM.
For `Fc1ccc(Cn2cc(CSc3nnc(C4CCC4)o3)nn2)cc1`, the 90% effect concentration (IC90) is 8 µM.
Same read-out and setting: for `c1ccc(COc2nnc(-c3ccccc3)o2)cc1` the value was > 62 µM (inactive); for `Fc1ccc(-c2nnc(SCc3ccccc3)o2)cc1`, 31 µM; for `Brc1cccc(-c2nnc(SCc3ccccn3)o2)c1`, less than 8 µM.
On to `COc1cccc(CSc2nnc(-c3ccccc3)o2)c1`, for which the IC90 was 16 µM.
`Fc1ccc(-c2nnc(SCc3ccccn3)o2)cc1`: the IC90 is less than 8 µM.
As for `FC1(F)CN(CCSc2nnc(-c3ccccc3)o2)C1`, the IC90 is > 62 µM (inactive).
As to `Fc1ccc(Cn2cc(CSc3nnc(C4CCCC4)o3)nn2)cc1`, the IC90 was 8 µM.
Take `[N-]=[N+]=NCCOCCNC(=O)CCCOc1ccc(CS(=O)c2nnc(-c3ccc(Cl)cc3)o2)nc1` (stereo unspecified): the concentration for an effect of 90% (IC90) is less than 8 µM.
With `Fc1cccc(-c2nnc(SCc3ccccn3)o2)c1`, the IC90 was less than 8 µM.

Tested on in another assay: not listed separately
The description is as above. The following applies: M. tuberculosis starvation survival, CFU enumeration.
For `O=S(=O)(Cc1cn(Cc2ccccc2)nn1)c1nnc(-c2ccc(Cl)cc2)o1`, the outcome was inactive.
